What was measured:
[1] = system: H460 cells; experiment: Chou-Talalay combination studies with RPAi 329; format: cell-based, human; conditions: H460, combination with RPAi 329
Procedure: To assess synergy, the combination index (CI) was determined as described by Chou-Talalay as we have previously described ([8]). Briefly, H460 cells were treated with RPAi and the indicated agent alone and in combination. […] The data from both the single-agent treatments and the combination treatment were used to calculate the CI and plot this value as a function of the fraction of cells affected (Fa). A CI of >1 indicates antagonism between the two agents, while a CI <1 indicates synergy.
(A) Chou-Talalay analysis of combination with chemotherapeutics. […] (B) Chou-Talalay analysis of combination with DDR-targeted agents as described in panel (A).

[2] = system: H460 cells; experiment: DNA fiber analysis of replication fork dynamics; format: cell-based, human
Procedure: Analysis of DNA replication intermediates was performed as previously described with minor modifications ([11], [12]). H460 cells were seeded in 6-well plates at a density of 2 × 10^5 cells. […] After harvesting, the cells were resuspended in PBS at a concentration of 1,000,000 cells/ml, and 2 µl of the cell suspension was mixed with 8 µl of lysis buffer (200 mM Tris-HCl pH 7.5, 50 mM EDTA, 0.5% SDS) on a Superfrost Plus microscope slide (Fisher Scientific). After 6 min of incubation, the slides were tilted at a 45-degree angle to allow cell lysates to slowly run down the slide. After air-drying, the slides were fixed in methanol:acetic acid (3:1) and stored at 4°C. DNA fibers were denatured with 2.5N HCl for 1 h, washed with PBS, and blocked with 5% BSA in PBS-T (PBS + 0.1% Tween-20) for 1 h. […] Excess antibodies were removed by washing with PBS-T 3 times. After air-drying, the slides were mounted onto a coverslip with mounting medium. Fiber tracts were imaged with a Nikon epifluorescence microscope using a 40× oil immersion objective, and 100 fibers for each group were analyzed in ImageJ where the ratios of CldU : IdU were compared using pixel length. Data were analyzed by ANOVA with Bonferroni test for multiple comparisons.
(A) Schematic depiction of experimental design. DNA was pulse-labeled with IdU for 20 min. After IdU removal, replication forks were stalled by the addition of HU or left to replicate with vehicle treatment. HU was removed, and replication was labeled with CldU. Following CldU, cells were treated with the DDRi or vehicle. […] Data presented are combined from three individual experiments (100 fibers analyzed per experiment; 300 fibers total). Red bar indicates the median value of CldU/IdU.

[3] = system: H460 cells; experiment: Caspase 3/7 apoptosis assay; format: cell-based, human; conditions: H460, 24 h
Procedure: Apoptosis induction was determined by activation of Caspases 3 and 7 using the CellEvent™ Caspase-3/7 Green Detection Reagent (Invitrogen). H460 cells were plated at 5 × 10^3 cells/well in black 96-well plates with clear bottoms (Costar) and incubated for 24 h prior to treatments. Cells were treated with the indicated concentration of RPAi or cisplatin for 24 h. The vehicle (DMSO) concentration was held constant at 1% for RPAi treatments. For caspase 3/7 detection, medium was removed and replaced with phosphate buffered saline (PBS) containing 5% fetal bovine serum (FBS) and 2 µM CellEvent™ Caspase-3/7 Green Detection Reagent. Cells were incubated at 37°C/5% CO2 for 1 h, and fluorescence intensity was measured in a BioTek Synergy H1 plate reader (excitation/emission 485/528). Images were captured with an Evos FL2 Auto microscope (Invitrogen) using a 10× objective.
Figure 3 The 329 induction of apoptotic cell death. (A) Analysis of caspase 3/7 activity in H460 cells following 24 h of treatment with 1% DMSO or the indicated concentrations of 329. Fluorescence images were captured as described in the Materials and Methods. (B) Quantification of caspase 3/7 activity. Fluorescence was measured in 96-well plates using a Biotek Synergy H1 plate reader following 24-h incubation with the indicated drugs and concentrations.

[4] = system: lung cancer xenograft models; conditions: cited from earlier work
[5] = cited from earlier work
[6] = biological target: Escherichia coli single strand binding protein (SSB) (Escherichia coli, UniProt P0AGE0); experiment: EMSA internal specificity control, SSB–ssDNA complex; conditions: internal specificity control in EMSA
Chain of Escherichia coli single strand binding protein (SSB) (P0AGE0 2-178): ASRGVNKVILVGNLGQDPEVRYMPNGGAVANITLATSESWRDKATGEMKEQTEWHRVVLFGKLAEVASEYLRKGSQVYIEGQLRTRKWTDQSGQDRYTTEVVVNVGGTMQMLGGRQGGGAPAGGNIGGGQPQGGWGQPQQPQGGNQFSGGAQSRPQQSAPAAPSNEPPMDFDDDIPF
Procedure: (§1) EMSAs were performed as previously described ([9]). Briefly, reactions were conducted in 20 mM HEPES (pH 7.8), 1 mM DTT, 0.001% NP-40, and 50 mM NaCl. RPAis were suspended in 100% dimethlysulfoxide (DMSO), and DMSO concentration in the final reaction mixture was constant at less than 5%. Purified full-length RPA (120 ng) was incubated with the indicated RPAi or vehicle in reaction buffer for 30 min before the addition of the [^32]P-labeled 34-base ssDNA probe. Reactions were incubated for 5 min at room temperature, and products were separated via 6% native polyacrylamide gel electrophoresis. The bound and unbound fractions were quantified by phosphor-imager analysis using ImageQuant software (Molecular Dynamics, CA), and data were fit by non-linear regression using GraphPad Prism.
(§2) Figure 2 Replication protein A inhibitor (RPAi) inhibitory activity. (A) Chemical structure of RPAi’s 329 and 2004. (B) EMSA analysis of RPA–DNA interaction inhibition by 329 and 2004. Lanes 3–6 in each panel contain 6.25, 12.5, 25, and 50 µM of the indicated RPAi, respectively. The * indicates the position of the Escherichia coli SSB–single-stranded DNA (ssDNA) complex that serves as an internal specificity control. (C) Cell viability of H460 NSCLC cells in response to 329 and 2004.

[7] = biological target: T1, RPA–DNA interaction (purified full-length RPA) (Homo sapiens, UniProt P27694); experiment: EMSA of RPA–DNA interaction inhibition; format: binding; conditions: 6.25, 12.5, 25, 50 µM RPAi
T1 construct: Purified full-length RPA (120 ng) was incubated with the indicated RPAi
T1 sequence (P27694 whole entry): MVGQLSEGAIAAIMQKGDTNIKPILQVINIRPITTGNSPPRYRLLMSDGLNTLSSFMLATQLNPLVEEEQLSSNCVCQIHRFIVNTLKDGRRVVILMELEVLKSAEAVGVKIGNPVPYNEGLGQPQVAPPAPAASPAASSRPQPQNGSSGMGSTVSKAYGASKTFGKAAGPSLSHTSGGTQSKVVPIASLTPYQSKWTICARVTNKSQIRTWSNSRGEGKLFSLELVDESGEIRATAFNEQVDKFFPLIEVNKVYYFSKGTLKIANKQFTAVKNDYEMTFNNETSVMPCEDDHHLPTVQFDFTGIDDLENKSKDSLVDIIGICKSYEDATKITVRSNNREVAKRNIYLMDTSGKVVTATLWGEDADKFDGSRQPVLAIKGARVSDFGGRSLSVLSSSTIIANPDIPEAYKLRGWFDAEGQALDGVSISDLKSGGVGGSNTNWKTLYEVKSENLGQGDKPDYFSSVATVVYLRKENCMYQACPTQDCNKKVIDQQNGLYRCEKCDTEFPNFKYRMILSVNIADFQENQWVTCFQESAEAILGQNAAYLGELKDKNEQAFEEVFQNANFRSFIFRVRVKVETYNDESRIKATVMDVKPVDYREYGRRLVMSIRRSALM
T1 sequence (P15927 whole entry partner): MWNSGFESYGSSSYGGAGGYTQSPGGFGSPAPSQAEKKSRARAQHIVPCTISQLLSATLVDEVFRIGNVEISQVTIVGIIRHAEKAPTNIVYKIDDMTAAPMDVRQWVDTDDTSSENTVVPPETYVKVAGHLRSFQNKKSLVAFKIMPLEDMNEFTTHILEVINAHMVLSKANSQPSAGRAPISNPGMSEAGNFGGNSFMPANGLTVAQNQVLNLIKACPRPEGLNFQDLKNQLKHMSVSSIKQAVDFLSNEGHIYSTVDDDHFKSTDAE
T1 sequence (P35244 whole entry partner): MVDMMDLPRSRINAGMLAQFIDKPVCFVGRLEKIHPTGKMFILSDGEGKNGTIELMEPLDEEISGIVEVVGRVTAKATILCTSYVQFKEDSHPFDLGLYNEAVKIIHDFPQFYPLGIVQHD
Procedure: as §1, §2

[8] = system: A549 adenocarcinoma and H460 large cell carcinoma; design: method as in doi:10.1101/2020.11.30.404640; conditions: both models, differing dosing regimens, DMSO/Tween; cited from earlier work
[9] = design: method as in PMID 32550990; conditions: cited from earlier work
[10] = system: H460 NSCLC cells; experiment: CCK-8 viability assay; format: cell-based, human; conditions: H460, 48 h, compared to 551 predecessor
Procedure: Cell lines were obtained from ATCC and maintained as monolayer cultures in RPMI 1640 medium (H460) or Dulbecco’s Modified Eagle's Medium (DMEM) (A549) supplemented with 10% fetal bovine serum. H460 and A549 cells were plated at 2.5 × 10^3 cells/well and A2780 and GCT27 cells plated at 5 × 10^3 cells/well in a 96-well plate and incubated for 18–24 h prior to treatments. Cells were treated with the indicated concentration of RPAi for 48 h. The vehicle (DMSO) concentration was held constant at 1%. Cell metabolism/viability was assessed by a mitochondrial metabolism assay (CCK-8) as we have described previously ([10]). The generation of the water-soluble formazan product by cellular dehydrogenases is proportional to the number of living cells. Following incubation with CCK-8 reagent, absorbance was measured at 450 nm with a BioTek Synergy H1 plate reader. Values were compared to those of vehicle-treated controls to determine percent viability, and the results represent the average and SEM of triplicate determinations.

Cn1ncnc1[C@H]1c2n[nH]c(=O)c3cc(F)cc(c23)N[C@@H]1c1ccc(F)cc1 [BMN637]
synergy with RPAi 329 (Chou-Talalay) [1]: modest synergy

CNCc1ccc(-c2cc(-c3nc(-c4ccc(S(=O)(=O)C(C)C)cc4)cnc3N)on2)cc1 [VE-822]
CldU/IdU signal after HU ([2]; H460, HU 2.5 mM then 329 50 µM or VE-822 2 µM): significant decrease in CldU/IdU signal | CldU/IdU, inhibitor alone ([2]; H460, without HU, 329 50 µM, VE-822 2 µM, 2 h): minimal effects

O=C1NC(=O)c2c1c(-c1ccccc1Cl)cc1[nH]c3ccc(O)cc3c21 [Wee1 inhibitor]
synergy with RPAi 329 (Chou-Talalay) [1]: antagonistic or additive

CCOc1ccc2cc(C3CC(c4ccc(I)cc4)=NN3C(=O)CCCC(=O)O)c(Cl)nc2c1 (centres unmarked) [compound 551]
activation of caspases 3 and 7 [3]: inability to detect caspase activity | tumor growth delay, combination with carboplatin ([4]; NSCLC xenograft models, reduced doses of carboplatin and 551, versus each agent alone): greater than additive effect on tumor growth delay | in vivo activity [4]: modest in vivo activity | caspase activation or annexin V/PI positivity [5]: not accompanied by caspase activation or annexin V/PI positivity

CCOc1ccc2cc(C3CC(c4ccc(Br)cc4)=NN3C(=O)CCCC(=O)NCCCN3CCOCC3)c(Cl)nc2c1 (centres unmarked) [compound 2004]
interaction of E. coli SSB with ssDNA [6]: not impacted | RPA inhibitory activity (RPA–DNA interaction, EMSA) [7]: potent RPA inhibitory activity | single-agent anticancer activity in vivo [8]: only modest single-agent anticancer activity | solubility, cellular uptake, and physicochemical properties [9]: excellent | single-agent cellular anticancer activity (CCK-8) [10]: potent single-agent activity

N=C1NC(=O)/C(=C/c2ccc(O)cc2)S1 [mirin]
reversal of the CldU/IdU decrease ([2]; H460, HU then ATRi or RPAi): reversible
